From US20080271368A1, “METHOD OF PROMOTING PLANT GROWTH AND IMPROVING PLANT QUALITY AND GROWTH-PROMOTING AGENT AND QUALITY-IMPROVING AGENT TO BE USED IN THE METHOD” (priority 2006, published 2008) come the findings set out here.

In the assay the test system is rice seedlings. The assay is described as follows: Rice yield test. Type of assay: in vivo. The note with it: for Average yield: average of nine bunches. As for the experimental part:
A predetermined amount of chemicals was weighed and embedded into soil together with roots of rice seedlings when the seedlings are planted in a paddy field in early May. […] Nine bunches were planted per one test field. After that, usual wet-rice culture was carried out until harvesting in early October. The rice crop was dried and weighed to determine the yield. Good unhusked rice obtained by wind selection was used as the test sample.

`O=P([O-])(O)O.O=P([O-])(O)O.[Ca+2]` [Calcium dihydrogen phosphate] gave an Average yield (treated amount 1 g per 1 m^2, good unhusked rice) of 196 g and an Average yield (treated amount 10 g per 1 m^2, good unhusked rice) of 230 g. Besides, the “Average yield (%)” value reads like this: (treated amount 1 g per 1 m^2, untreated = 100) “(90) %”; (treated amount 10 g per 1 m^2, untreated = 100) “(105) %”.
